This note sets out measurements from US8314253B2, “Bridged tetrahydronaphthalene derivatives” (Actelion Pharmaceuticals Ltd., priority 2008, dated 2012).

The structures appear in SMILES notation.

The subject of the assay is human Cav3.1 Cav3.2 or Cav3.3 channel. In words: In vitro assay T channel (FLIPR, Ca2+-induced fluorescence). In kind it is cell-based. The settings on record: HEK293 cells expressing human Cav3.1 Cav3.2 or Cav3.3; 10 mM Ca2+; determined up to 10 μM; read-out: T channel antagonistic activity IC50. As for the experimental part: Human embryonic kidney (HEK293) cells expressing the human Cav3.1 Cav3.2 or Cav3.3 channel, respectively, are grown in culture medium (DMEM containing 10% heat-inactivated fetal calf serum (FCS), 100 U/ml penicillin, 100 μg/ml streptomycin and 1 mg/ml G418). The cells are seeded at 20.000 cells/well into 384-well black clear bottom sterile plates (poly-L-lysine-coated, Becton Dickinson). The seeded plates are incubated overnight at 37° C. in 5% CO2. The Ca^2+ solution is prepared as 100 mM stock solution in 100 mM tetraethylammoniumchloride (TEA-chloride), 50 mM HEPES, 2.5 mM CaCl2, 5 mM KCl, 1 mM MgCl2, adjusted to pH 7.2 with TEA-hydroxide, for use in the assay at a final concentration of 10 mM. […] Fluorescence is measured for each well at 2 second intervals for 8 minutes, and the area under the curve of each fluorescence peak is compared to the area of the fluorescence peak induced by 10 mM Ca^2+ with vehicle in place of antagonist.
As for `CN(CCCc1nc2ccccc2[nH]1)CC[C@]1(O)C[C@H]2CCC[C@@H]1c1ccccc12` (relative stereo) [Example 10, rac-(1R*,8R*,12R*)-12-(2-{[3-(1H-Benzoimidazol-2-yl)-propyl]-methyl-amino}-ethyl)-tricyclo[6.3.2.0^2,7]trideca-2,4,6-trien-12-ol], the concentration for half-maximal inhibition (IC50) was determined as 1580 nM. On to `COc1ccc(C)c2[nH]c(CCCN(C)CC[C@@]3(OC(=O)CC(F)(F)F)C[C@@H]4CCC[C@H]3c3ccccc34)nc12` [Example 14B, 3,3,3-Trifluoro-propionic acid (1S,8S,12S)-12-(2-{[3-(4-methoxy-7-methyl-1H-benzoimidazol-2-yl)-propyl]-methyl-amino}-ethyl)-tricyclo[6.3.2.0^2,7]trideca-2,4,6-trien-12-yl ester or 3,3,3-trifluoro-propionic acid (1R,8R,12R)-12-(2-{[3-(4-methoxy-7-methyl-1H-benzoimidazol-2-yl)-propyl]-methyl-amino}-ethyl)-tricyclo[6.3.2.0^2,7]trideca-2,4,6-trien-12-yl ester], for which the half-inhibitory concentration (IC50) worked out at 514 nM. Consider `CC(C)C(=O)OC1(CCN(C)CCCc2nc3ccccc3[nH]2)CC2CCC1c1ccccc12` [Example 2A, Isobutyric acid (1S,8S,9S)-9-(2-{[3-(1H-benzoimidazol-2-yl)-propyl]-methyl-amino}-ethyl)-tricyclo[6.2.2.0^2,7]dodeca-2,4,6-trien-9-yl ester or isobutyric acid (1R,8R,9R)-9-(2-{[3-(1H-benzoimidazol-2-yl)-propyl]-methyl-amino}-ethyl)-tricyclo[6.2.2.0^2,7]dodeca-2,4,6-trien-9-yl ester], for which the IC50 worked out at 1790 nM. Take `COc1cccc2[nH]c(CCCN(C)CCC3(OC(=O)C(C)C)CC4CCCC3c3ccccc34)nc12` [Example 13A, Isobutyric acid (1S,8S,12S)-12-(2-{[3-(4-Methoxy-1H-benzoimidazol-2-yl)-propyl]-methyl-amino}-ethyl)-tricyclo[6.3.2.0^2,7]trideca-2,4,6-trien-12-yl ester or isobutyric acid (1R,8R,12R)-12-(2-{[3-(4-methoxy-1H-benzoimidazol-2-yl)-propyl]-methyl-amino}-ethyl)-tricyclo[6.3.2.0^2,7]trideca-2,4,6-trien-12-yl ester]: the IC50 is 544 nM.

As for `CC(C)C(=O)OC1(CCN(C)CCCc2nc3ccccc3[nH]2)CC2CCCC1c1ccccc12` [Example 12A, Isobutyric acid (1S,8S,12S)-12-(2-{[3-(1H-Benzoimidazol-2-yl)-propyl]-methyl-amino}-ethyl)-tricyclo[6.3.2.0^2,7]trideca-2,4,6-trien-12-yl ester or isobutyric acid (1R,8R,12R)-12-(2-{[3-(1H-benzoimidazol-2-yl)-propyl]-methyl-amino}-ethyl)-tricyclo[6.3.2.0^2,7]trideca-2,4,6-trien-12-yl ester], the IC50 was 783 nM.

On to `O[C@@]1(CCN2CCC(c3ccccc3)(c3nc4ccccc4[nH]3)CC2)C[C@H]2CC[C@@H]1c1ccccc12` (relative stereo) [Example 8, rac-(1R*,8R*,9R*)-9-{2-[4-(1H-Benzoimidazol-2-yl)-4-phenyl-piperidin-1-yl]-ethyl}-tricyclo[6.2.2.0^2,7]dodeca-2,4,6-trien-9-ol], for which the IC50 was 953 nM. Regarding `CN(CCCc1nc2ccccc2[nH]1)CCC1(O)CC2CCC1c1ccccc12` (single isomer, unassigned) [Example 2, (1S,8S,9S)-9-(2-{[3-(1H-Benzoimidazol-2-yl)-propyl]-methyl-amino}-ethyl)-tricyclo[6.2.2.0^2,7]dodeca-2,4,6-trien-9-ol or (1R,8R,9R)-9-(2-{[3-(1H-benzoimidazol-2-yl)-propyl]-methyl-amino}-ethyl)-tricyclo[6.2.2.0^2,7]dodeca-2,4,6-trien-9-ol], the IC50 was 2900 nM.

Consider `CN(CCCc1nc2ccccc2[nH]1)CC[C@]1(O)C[C@H]2CC[C@@H]1c1ccccc12` (relative stereo) [Example 1, rac-(1R*,8R*,9R*)-9-(2-{[3-(1H-Benzoimidazol-2-yl)-propyl]-methyl-amino}-ethyl)-tricyclo[6.2.2.0^2,7]dodeca-2,4,6-trien-9-ol], for which the 50% inhibitory concentration (IC50) is 2850 nM. Turning to `CN(CCCc1nc2ccccc2[nH]1)CCC1(O)CC2CCCC1c1ccccc12` (single isomer, unassigned) [Example 12, (1S,8S,12S)-12-(2-{[3-(1H-Benzoimidazol-2-yl)-propyl]-methyl-amino}-ethyl)-tricyclo[6.3.2.0^2,7]trideca-2,4,6-trien-12-ol or (1R,8R,12R)-12-(2-{[3-(1H-benzoimidazol-2-yl)-propyl]-methyl-amino}-ethyl)-tricyclo[6.3.2.0^2,7]trideca-2,4,6-trien-12-ol], the 50% inhibitory concentration (IC50) was found to be 631 nM. The value for `CC(C)C(=O)O[C@@]1(CCN2CCC(c3ccccc3)(c3nc4ccccc4[nH]3)CC2)C[C@H]2CC[C@@H]1c1ccccc12` (relative stereo) [Example 8A, rac-Isobutyric acid (1R*,8R*,9R*)-9-{2-[4-(1H-benzoimidazol-2-yl)-4-phenyl-piperidin-1-yl]-ethyl}-tricyclo[6.2.2.0^2,7]dodeca-2,4,6-trien-9-yl ester] was 6100 nM; that for `CN(CCCc1nc2ccccc2[nH]1)CCC1(O)CC2CCC1c1ccccc12` (single isomer, unassigned) [Example 3, (1S,8S,9S)-9-(2-{[3-(1H-Benzoimidazol-2-yl)-propyl]-methyl-amino}-ethyl)-tricyclo[6.2.2.0^2,7]dodeca-2,4,6-trien-9-ol or (1R,8R,9R)-9-(2-{[3-(1H-benzoimidazol-2-yl)-propyl]-methyl-amino}-ethyl)-tricyclo[6.2.2.0^2,7]dodeca-2,4,6-trien-9-ol] was 2250 nM. With `CO[C@@]1(CCN(C)CCCc2nc3ccccc3[nH]2)C[C@H]2CC[C@@H]1c1ccccc12` (relative stereo) [Example 4, rac-(1R*,8R*,9R*)-[3-(1H-Benzoimidazol-2-yl)-propyl]-[2-(9-methoxy-tricyclo[6.2.2.0^2,7]dodeca-2,4,6-trien-9-yl)-ethyl]-methyl-amine] the figure was 1220 nM. Take `COc1cccc2[nH]c(CCCN(C)CCC3(O)CC4CCCC3c3ccccc34)nc12` (single isomer, unassigned) [Example 13, (1S,8S,12S)-12-(2-{[3-(4-Methoxy-1H-benzoimidazol-2-yl)-propyl]-methyl-amino}-ethyl)-tricyclo[6.3.2.0^2,7]trideca-2,4,6-trien-12-ol or (1R,8R,12R)-12-(2-{[3-(4-methoxy-1H-benzoimidazol-2-yl)-propyl]-methyl-amino}-ethyl)-tricyclo[6.3.2.0^2,7]trideca-2,4,6-trien-12-ol]: the concentration for half-maximal inhibition (IC50) worked out at 1220 nM. The value for `CN(CCCc1nc2ccccc2[nH]1)CCC1(O)CC2CCCC1c1ccccc12` (single isomer, unassigned) [Example 11, (1S,8S,12S)-12-(2-{[3-(1H-Benzoimidazol-2-yl)-propyl]-methyl-amino}-ethyl)-tricyclo[6.3.2.0^2,7]trideca-2,4,6-trien-12-ol or (1R,8R,12R)-12-(2-{[3-(1H-benzoimidazol-2-yl)-propyl]-methyl-amino}-ethyl)-tricyclo[6.3.2.0^2,7]trideca-2,4,6-trien-12-ol] was 521 nM; that for `O[C@@]1(CCN2CCC(c3nc4ccccc4[nH]3)CC2)C[C@H]2CC[C@@H]1c1ccccc12` (relative stereo) [Example 6, rac-(1R*,8R*,9R*)-9-{2-[4-(1H-Benzoimidazol-2-yl)-piperidin-1-yl]-ethyl}-tricyclo[6.2.2.0^2,7]dodeca-2,4,6-trien-9-ol] was 1360 nM; that for `COCC(=O)O[C@@]1(CCN(C)CCCc2nc3ccccc3[nH]2)C[C@H]2CCC[C@@H]1c1ccccc12` (relative stereo) [Example 10A, rac-Methoxy-acetic acid (1R*,8R*,12R*)-12-(2-{[3-(1H-benzoimidazol-2-yl)-propyl]-methyl-amino}-ethyl)-tricyclo[6.3.2.0^2,7]trideca-2,4,6-trien-12-yl ester] was 814 nM. With `COCC(=O)O[C@@]1(CCN(C)CCCc2nc3ccccc3[nH]2)C[C@H]2CC[C@@H]1c1ccccc12` (relative stereo) [Example 1A, rac-Methoxy-acetic acid (1R*,8R*,9R*)-9-(2-{[3-(1H-benzoimidazol-2-yl)-propyl]-methyl-amino}-ethyl)-tricyclo[6.2.2.0^2,7]dodeca-2,4,6-trien-9-yl ester] the figure was 1530 nM.

On to `CN(CCCc1nc2ccccc2[nH]1)CC[C@]1(O)C[C@H]2CC[C@@H]1c1cc(F)c(F)cc12` (relative stereo) [Example 9, rac-(1R*,8R*,9R*)-9-(2-{[3-(1H-Benzoimidazol-2-yl)-propyl]-methyl-amino}-ethyl)-4,5-difluoro-tricyclo[6.2.2.0^2,7]dodeca-2,4,6-trien-9-ol], for which the half-inhibitory concentration (IC50) came out at 1850 nM. Turning to `CN(CCCc1nc2ccccc2[nH]1)CC[C@@]1(O)C[C@H]2CC[C@@H]1c1ccccc12` (relative stereo) [Example 5, rac-(1R*,8R*,9S*)-9-(2-{[3-(1H-Benzoimidazol-2-yl)-propyl]-methyl-amino}-ethyl)-tricyclo[6.2.2.0^2,7]dodeca-2,4,6-trien-9-ol], the half-inhibitory concentration (IC50) was greater than 10000 nM. For `O[C@@]1(CCN2CCCC(c3nc4ccccc4[nH]3)C2)C[C@H]2CC[C@@H]1c1ccccc12` (relative stereo) [Example 7, (1R*,8R*,9R*)-9-{2-[(3RS)-3-(1H-Benzoimidazol-2-yl)-piperidin-1-yl]-ethyl}-tricyclo[6.2.2.0^2,7]dodeca-2,4,6-trien-9-ol], the IC50 came to 2260 nM.

As a reminder, the IC50 is the midpoint of a concentration-inhibition curve.
